In US20160000762A1, “IMPROVING COGNITIVE FUNCTION” (THE REGENTS OF THE UNIVERSITY OF CALIFORNIA, priority 2013, published 2016):

Experiments:
dendritic spines = assay: Golgi staining, dendritic spine density and morphology in 3× Tg AD mice; assay type: in vivo
Protocol: Golgi staining and morphological analysis of dendritic spines. Dendritic spine density and morphology analyses in the brain were conducted using the FD RAPID GOLGISTAIN KIT™ (FD NeuroTechnologies, Ellicott City, Md., USA). Mouse brains were dissected, immersed in Solutions A and B (2 weeks, room temperature, dark conditions), and then transferred to Solution C (24 h, 4° C.). A VT1000S Vibratome (Leica, Bannockburn, Ill., USA) was then used to slice brains 150 μm thick. Bright-field microscopy acquired dendritic images by Axioplan 2 (Zeiss, Oberkochen, Germany). Scion image software (Scion Corporation, Frederick, Md., USA) allowed measurement of spine head width, spine length, and linear density of cortical layers II/III and CA1 of the hippocampus. Images were coded and analyzed blind to experimental conditions. To measure dendritic spine density, we included spines from 0.2 to 2 μmin length, with at least 25 apical oblique (AO) and basal (BS) dendritic observations averaged from each animal (n=4-5 brains for 2-3 months old/group and 6-10 months old/group, n=3 brains for 13-16 months old/group). To measure spine morphology, we included spines up to 1.4 μm in width and 3.2 μm in length.
BTA-EG4 alters dendritic spine density in the cortex and hippocampus. […] In the present study, we investigated whether BTA-EG4 improves dendritic spine density in a mouse model of AD. For this study, we selected the 3× Tg AD mouse model due to its ability to model the progression of human AD (Oddo et al., 2003). […] To assess its effectiveness throughout disease progression, 2-3 month, 6-10 month, and 13-16 month old 3× Tg AD mice were injected with BTA-EG4 (30 mg/kg, i.p.) or vehicle (10% DMSO) daily for 2 weeks. The 2-week duration of treatment was selected because it increased dendritic spine density and improved memory in wild-type mice (Megill et al., 2013). After the treatment, we conducted Golgi staining to measure dendritic spine density (FIGS. 10A-10J, FIGS. 15A-15H and FIGS. 16A-16B).

[1] = tested on: primary hippocampal neurons; assay: Dendritic spine density in transfected primary hippocampal neurons; assay type: cell-based, Sprague-Dawley rats; details: 5 μM
Protocol: Primary neuron culture and immunostaining. Primary hippocampal neurons from E19 Sprague-Dawley rats were cultured at 150 cells/mm^2 as previously described (Pak et al., 2001). Neurons were transfected using Lipofectamine™ 2000 (Invitrogen, Carlsbad, Calif., USA) or calcium phosphate precipitation with GFP+PLL, GFP+APP shRNA, or GFP+APP and treated with BTA-EG4. The following antibodies were used: mouse anti-GFP (Novus Biologicals, 9F9.F9), rabbit anti-GFP (Invitrogen, A11122), rabbit anti-GluR1 (Calbiochem, PC246), mouse anti-GluR2 (BD Pharmagen, 556341), mouse anti-postsynaptic density (PSD)-95 (NeuroMabs, Davis, Calif., USA), mouse anti-Synaptophysin (Sigma Aldrich, s5768), rabbit APP N-terminal (Sigma-Aldrich, A8967), anti-Ras (BD Biosciences, 610001), anti-RasGRF1 (Santa Cruz, C-20; BD Biosciences, 610149), anti-ERK1/2 (Cell Signaling, 4695), anti-p-ERK1/2 (Invitrogen, 36880), anti-CREB (Cell Signaling, D76D11), anti-p-CREB (Millipore, 06-519), and mouse anti-c-Myc (Novus Biologicals, 9E10). Cultured hippocampal neuron images were acquired by LSM 510 laser scanning confocal microscope (Zeiss). Confocal zseries image stacks encompassing entire dendrite segments were analyzed using MetaMorph software (Universal Imaging Corporation, Downington, Pa., USA).
To examine whether BTA-EG4 acts through APP to increase dendritic spine density, we acutely knocked down APP using shRNA in primary hippocampal neurons. APP shRNA was cotransfected with GFP to visualize dendritic spines, and control cultures were transfected with GFP and PLL (control vector for shRNA construct). We then treated both cultures with BTA-EG4 (5 μM) or vehicle. […] To confirm this finding in vivo, we examined the effect of BTA-EG4 on dendritic spine density in APP knockout (KO) mice. APP-KO mice were injected with BTA-EG4 (30 mg/kg) or vehicle for 2 weeks, and Golgi analysis was conducted on hippocampal CA1 neurons.
To examine whether the effect of BTA-EG4 on dendritic spine formation is Ras dependent, primary hippocampal neurons were transfected with GFP and RasGRF1 shRNA, or GFP and PLL. After 24 h, we treated with BTA-EG4 (5 μM) or control for another 24 h, and spine density was measured using immunofluorescence. […] After 24 h, we then treated neurons with BTA-EG4 (5 μM) or control for 24 h, and spine density was measured. Ras-WT alone or combined with BTA-EG4 increased dendritic spine density compared with control (FIGS. 7K, 7L).

APP = APP processing in vivo (sAPPα, sAPPβ immunoblot); set-up: species or system wild-type mice; details: 30 mg/kg i.p., 2 weeks
Protocol: To test whether BTA-EG4 alters Aβ production in vitro, primary cortical neurons were treated with BTA-EG4 (1 or 5 μM) or control (10% DMSO), and Aβ levels were measured using ELISA. […] We then examined whether BTA-EG4 can alter Aβ levels in vivo by injecting wild-type mice daily for 2 weeks with BTA-EG4 (15 or 30 mg/kg, 10% DMSO in saline, i.p.). […] Furthermore, BTA-EG4 altered APP processing in vivo, as monitored by increased sAPPα (α-secretase cleavage product) and decreased sAPPβ (β-secretase cleavage product) levels in BTA-EG4 injected wild-type mice (30 mg/kg, i.p) compared to control-injected mice (FIGS. 1E, 1F).

Question: Which dendritic spine length (dendritic spines; 13-16 months) does the source give for BTA-EG4 here?
Answer: neither the width nor length of dendritic spines changed

Question: What about the dendritic spine width (dendritic spines; 13-16 months) of the same substance?
Answer: neither the width nor length of dendritic spines changed

Question: What about the hippocampal spine density (dendritic spines; CA1, 13-16 months, 30 mg/kg daily, 2 weeks) of the same substance?
Answer: only a trend toward an increase

Question: And the dendritic spine width (dendritic spines; cortex and hippocampus, 6-10 months, 30 mg/kg)?
Answer: wider

Question: And the dendritic spine length (dendritic spines; cortical layers II/III and hippocampus, 6-10 months, 30 mg/kg)?
Answer: longer

Question: What about the dendritic spine density (dendritic spines; cortical neurons, 13-16 months, 30 mg/kg i.p. daily, 2 weeks) of the same substance?
Answer: improved

Question: And the “overall density of dendritic spines” value (dendritic spines; hippocampus CA1, 2-3 months, 30 mg/kg i.p. daily, 2 weeks)?
Answer: significantly increased

Question: What about the “overall density of dendritic spines” value (dendritic spines; hippocampus CA1, 6-10 months, 30 mg/kg i.p. daily, 2 weeks) of the same substance?
Answer: significantly increased

Question: And the “overall density of dendritic spines” value (dendritic spines; layers II/III of the cortex, 2-3 months, 30 mg/kg i.p. daily, 2 weeks)?
Answer: significantly increased

Question: What about the “overall density of dendritic spines” value (dendritic spines; layers II/III of the cortex, 6-10 months, 30 mg/kg i.p. daily, 2 weeks) of the same substance?
Answer: significantly increased

Question: What about the dendritic spine density ([1]; 24 h, GFP and PLL control vector) of the same substance?
Answer: significantly increased

Question: And the dendritic spine density ([1]; 24 h, RasGRF1 knockdown)?
Answer: prevented the effect

Question: What about the dendritic spine density ([1]; 24 h, combined with Ras-WT, vs control) of the same substance?
Answer: increased

Question: What about the dendritic spine density ([1]; 24 h, in the presence of RasN17) of the same substance?
Answer: could no longer increase

Question: And the dendritic spine density ([1]; knockdown of APP (APP shRNA))?
Answer: prevented the increase

Question: And the sAPPα levels (APP)?
Answer: increased

Question: And the sAPPβ levels (APP)?
Answer: decreased
